Test results from patent publication EP0728012B1, “NOVEL GnRH ANALOGUES WITH ANTITUMOUR EFFECTS AND PHARMACEUTICAL COMPOSITIONS THEREOF” (Lovas, Sandor, priority 1994, dated 1996).

Key:
MDA-MB-231 xenograft = assay: In vivo antitumour effect on MDA-MB-231 xenograft in immunosuppressed mice; design: species or system CBA/Ca mice; conditions: for Volume (cm^3) of tumours / Weight (g) of tumours: after 9 week treatment
Procedure: The immunosuppression of mice was carried out by using the method of Steel et al. [Br. J. Cancer, 37, 224-230 (1978)]. Immunosuppression and xeno-transplantation
CBA-Ca female mice of about 6 weeks old were thymectomized and then, after one week, they were irradiated with 60Co (whole body irradiation; the lethal dose is 9.5 Gray). Within 24 hours 3 to 5 x 10^5 myelocytes were injected into the animals. Beneath the skin of the immunosuppressed mice 2 x 10^7 tumour cells or, in the case of later passages, […] were implanted. […] The treatment with steroid hormone was stopped by at least one week before beginning the investigation.
Recent investigations have begun on 28 animals bearing MCF-7 xenograft and on 28 animals bearing MDA-MB-231 xenograft. On animals bearing MCF-7 tumour the treatment was commenced in the 5th week following xeno-transplantation; the tumour volume was 205 to 225 mm^3. On animals bearing MDA-MB-231 tumour, the treatment was started in the 4th week after xeno-transplantation with a tumour volume of 140 to 150 mm^3. […] The control groups were daily treated with physiological saline s.c. (Each treated group consisting of 7 animals).
A more recent study was started on 28 animals bearing MDA-MB-231 xenograft. The treatment was begun in the 4th or 5th week following xenotransplantation. The tumour volume was 0.165 to 0.194 cm^3. […] (For treatment of the control group, see the preceding Examples). Each group consisted of 7 animals.

Ishikawa = assay: Inhibition of colony formation by GnRH analogues (dose-survival, Example 48); format: cell-based, human; conditions: within the dose range used (1-50 µM)
MCF-7 [1] = assay: as above; format: cell-based, human; conditions: 50 µM, treated once
MDA-MB-231 [2] = assay: as above; format: cell-based, human; conditions: 50 µM
PC3 = assay: as above; format: cell-based, human; conditions: within the dose range used (1-50 µM)
[3] = prolonged treatment for three cycles; high doses; cited from earlier work
[4] = tested on: MDA-MB-231 human mammary carcinoma cell line; assay: Inhibition of colony formation (dose-survival relation, Example 18); format: cell-based; conditions: 50 µM
[5] = tested on: MCF-7 human mammary carcinoma cell line; assay: as above; format: cell-based; conditions: 50 µM (active substance), treated once
[6] = tested on: PC3 human prostate carcinoma cell line; assay: as above; format: cell-based; conditions: 50 µM
rat hypophysis = conditions: superfusion, relative to human GnRH; cited from earlier work
MCF-7 [7] = conditions: MCF-7; 30 µM active substance; conjugate, treated once; cell count on 7th day; listed as 11. P-GFLG-GnRH-III
Procedure: (§1) The procedure of treatment was as follows. After trypsinization the cells, 400,000 cells of MCF-7, MDA-MB-231 human mammary carcinoma, PC3 human prostate carcinoma or Ishikawa human endometrium tumour each were passed into Petri dishes of 10 cm in diameter. Starting from the day following transfer, the cells were treated with the substances to be tested in solution prepared with the nutrient medium during the exponential growth phase. […]

MDA-MB-231 [8] = conditions: MDA-MB-231; 30 µM active substance; conjugate, treated once; listed as 11. P-GFLG-GnRH-III
Procedure: as §1

[9] = tested on: Ishikawa human endometrium carcinoma cell line; assay: Inhibition of colony formation (dose-survival relation, Example 18); format: cell-based; conditions: 50 µM
[10] = Ovulation / cycle of female rats during prolonged treatment; format: in vivo; conditions: high dose of the coupled GnRH-III; three cycles observed
Text: In 1993, researchers isolated and synthesized the Lamprey-III-GnRH decapeptide from lamprey (Petromyzon marinus) (p[…]NH2). This Lamprey-III-GnRH (herein below GnRH-III) exerts a significant tumour growth-inhibiting effect on human mammary tumour cell lines.

human tumour cell lines = assay: Inhibition of colony formation (Example 18), cell line not given; format: cell-based; conditions: on any cell line (Table 1)
Procedure: The investigation gives a precise information about the cell-damaging effect of the tested substance. In the case of cytostatics the cell-damaging effect is not cell-specific. […] One part of the arrested cells again go into the cycle, the other part may perish (apoptosis). […] The investigations were carried out on MCF-7 and MDA-MB-231 human mammary carcinoma cell lines, PC3 human prostate 15 carcinoma cell line and Ishikawa human endometrium carcinoma cell line. Three hundred cells were set into Petri dishes of 3.5 cm in diameter each. The treatment was carried out once, 24 hours following the explantation, then the colonies formed were counted after 9 to 12 days.

[11] = MDA-MB-231 xenograft, 100 µg daily s.c.
[12] = Table V, treatment week 2, 1x100 µg daily s.c.
[13] = Table V, treatment week 4, 1x100 µg daily s.c.
[14] = Table V, treatment week 6, 1x100 µg daily s.c.
[15] = week 0, daily s.c., 1 x 100 µg series
[16] = week 1, daily s.c., 1 x 100 µg series
[17] = week 2, daily s.c., 1 x 100 µg series
[18] = week 3, daily s.c., 1 x 100 µg series
[19] = week 4, daily s.c., 1 x 100 µg series
[20] = week 5, daily s.c., 1 x 100 µg series
[21] = week 6, daily s.c., 1 x 100 µg series
[22] = week 7, daily s.c., 1 x 100 µg series

For `NCCCC[C@H](NC(=O)[C@H](Cc1c[nH]c2ccccc12)NC(=O)[C@H](CC(=O)O)NC(=O)[C@H](Cc1c[nH]cn1)NC(=O)[C@H](CO)NC(=O)[C@H](Cc1c[nH]c2ccccc12)NC(=O)[C@H](Cc1c[nH]cn1)NC(=O)[C@@H]1CCC(=O)N1)C(=O)N1CCC[C@H]1C(=O)NCC(N)=O` [GnRH-III, reference compound], the “rate of tumour growth” value (MDA-MB-231 xenograft; [11]) was “did not inhibit”, the “Volume (cm^3) of tumours” value (MDA-MB-231 xenograft; [11]) was 2.017 ± 0.585 cm^3 and the “Weight (g) of tumours” value (MDA-MB-231 xenograft; [11]) was 1.84 ± 0.52 g. The Inhibition % (MDA-MB-231 xenograft; [12]) was 14%, the “Tumour volume as control (%)” value (MDA-MB-231 xenograft; [12]) was 86% and the Inhibition % (MDA-MB-231 xenograft; [13]) was 15%. For the same molecule, the “Tumour volume as control (%)” value (MDA-MB-231 xenograft; [13]) was 85%, the Inhibition % (MDA-MB-231 xenograft; [14]) was 15% and the “Tumour volume as control (%)” value (MDA-MB-231 xenograft; [14]) was 85%. For the same molecule, the “Tumour volume (cm^3)” value (MDA-MB-231 xenograft; [15]) was 0.19 cm^3, the “Tumour volume as control (%)” value (MDA-MB-231 xenograft; [15]) was 115% and the “Tumour volume (cm^3)” value (MDA-MB-231 xenograft; [16]) was 0.26 cm^3. For the same molecule, the “Tumour volume as control (%)” value (MDA-MB-231 xenograft; [16]) was 113%, the “Tumour volume (cm^3)” value (MDA-MB-231 xenograft; [17]) was 0.36 cm^3 and the “Tumour volume as control (%)” value (MDA-MB-231 xenograft; [17]) was 86%. For the same molecule, the “Tumour volume (cm^3)” value (MDA-MB-231 xenograft; [18]) was 0.47 cm^3, the “Tumour volume as control (%)” value (MDA-MB-231 xenograft; [18]) was 85% and the “Tumour volume (cm^3)” value (MDA-MB-231 xenograft; [19]) was 0.55 cm^3. For the same molecule, the “Tumour volume as control (%)” value (MDA-MB-231 xenograft; [19]) was 85%, the “Tumour volume (cm^3)” value (MDA-MB-231 xenograft; [20]) was 0.81 cm^3 and the “Tumour volume as control (%)” value (MDA-MB-231 xenograft; [20]) was 87%. For the same molecule, the “Tumour volume (cm^3)” value (MDA-MB-231 xenograft; [21]) was 1.04 cm^3, the “Tumour volume as control (%)” value (MDA-MB-231 xenograft; [21]) was 85% and the “Tumour volume (cm^3)” value (MDA-MB-231 xenograft; [22]) was 1.28 cm^3. For the same molecule, the “Tumour volume as control (%)” value (MDA-MB-231 xenograft; [22]) was 101%, the “inhibition of colony formation” value (Ishikawa) was “did not inhibit” and the “% Inhibition of the colony formation” value (MCF-7 [1]) was 45%. The “% Inhibition of the colony formation” value (MDA-MB-231 [2]) was 49%, the “inhibition of colony formation” value (PC3) was 21% and the “ovulation of female rats” value [3] was “did not inhibit the ovulation”. The “% Inhibition of colony formation” value [4] was 69%, the “% Inhibition of colony formation” value [5] was 65% and the “% Inhibition of colony formation” value [6] was 21%. For the same molecule, the LH-releasing effect (rat hypophysis) was “about thousand times weaker than that of the human GnRH”.

For “{Lys[n-poly(N-vinylpyrrolidone-co-maleic acid)-Gly-Phe-Leu-Gly-]}^8,-GnRH-III [P-GFLG-GnRH-III]”, the “animals that became tumour-free” value (MDA-MB-231 xenograft; MDA-MB-231 xenograft, 100 µg daily s.c., 6th week of treatment) was 2 animals from 7, the “Volume (cm^3) of tumours” value (MDA-MB-231 xenograft; [11]) was 0.613 ± 0.307 cm^3 and the “Weight (g) of tumours” value (MDA-MB-231 xenograft; [11]) was 0.45 ± 0.4 g. For the same molecule, the Inhibition % (MDA-MB-231 xenograft; [12]) was 20%, the “Tumour volume as control (%)” value (MDA-MB-231 xenograft; [12]) was 80% and the Inhibition % (MDA-MB-231 xenograft; [13]) was 36%. For the same molecule, the “Tumour volume as control (%)” value (MDA-MB-231 xenograft; [13]) was 64%, the Inhibition % (MDA-MB-231 xenograft; [14]) was 67% and the “Tumour volume as control (%)” value (MDA-MB-231 xenograft; [14]) was 33%. The “Tumour volume (cm^3)” value (MDA-MB-231 xenograft; [15]) was 0.17 cm^3, the “Tumour volume as control (%)” value (MDA-MB-231 xenograft; [15]) was 104% and the “Tumour volume (cm^3)” value (MDA-MB-231 xenograft; [16]) was 0.25 cm^3. For the same molecule, the “Tumour volume as control (%)” value (MDA-MB-231 xenograft; [16]) was 107%, the “Tumour volume (cm^3)” value (MDA-MB-231 xenograft; [17]) was 0.33 cm^3 and the “Tumour volume as control (%)” value (MDA-MB-231 xenograft; [17]) was 80%. For the same molecule, the “Tumour volume (cm^3)” value (MDA-MB-231 xenograft; [18]) was 0.40 cm^3, the “Tumour volume as control (%)” value (MDA-MB-231 xenograft; [18]) was 72% and the “Tumour volume (cm^3)” value (MDA-MB-231 xenograft; [19]) was 0.41 cm^3. For the same molecule, the “Tumour volume as control (%)” value (MDA-MB-231 xenograft; [19]) was 64%, the “Tumour volume (cm^3)” value (MDA-MB-231 xenograft; [20]) was 0.49 cm^3 and the “Tumour volume as control (%)” value (MDA-MB-231 xenograft; [20]) was 53%. The “Tumour volume (cm^3)” value (MDA-MB-231 xenograft; [21]) was 0.40 cm^3, the “Tumour volume as control (%)” value (MDA-MB-231 xenograft; [21]) was 32% and the “Tumour volume (cm^3)” value (MDA-MB-231 xenograft; [22]) was 0.31 cm^3. The “Tumour volume as control (%)” value (MDA-MB-231 xenograft; [22]) was 24%, the “% Inhibition of cell division (proliferation)” value (MCF-7 [7]) was 10% and the “% Inhibition of cell division (proliferation)” value (MDA-MB-231 [8]) was 11%. For the same molecule, the “% Inhibition of colony formation” value [5] was 9%, the “% Inhibition of colony formation” value [9] was 15% and the “% Inhibition of colony formation” value [6] was 16%. The “cycle of female rats (castration effect)” value [10] was “not influenced” and the “inhibition of colony formation” value (human tumour cell lines) was at most 16%.
